Laboratory results as given in patent US9994581B2, “Bromodomain inhibitors” (AbbVie Inc., priority 2013, dated 2018).
Like-named read-outs stand apart in the source and are kept apart here.

Legend:
[1] = tested on: breast cancer cell line MX-1; test: MX-1 cell line proliferation assay (3-day, Cell Titer Glo); format: cell-based; details: 72 hours, read-out: Cellular proliferation: EC50
Description: The impact of compounds of the Examples on cancer cell proliferation was determined using the breast cancer cell line MX-1 (ATCC) in a 3-day proliferation assay and the data are reported in Table 1. […] For compound testing, MX-1 cells were plated in 96-well black bottom plates at a density of 5000 cells/well in 90 μL of culture media and incubated at 37° overnight to allow cell adhesion and spreading. Compound dilution series were prepared in DMSO via a 3-fold serial dilution from 3 mM to 0.1 μM. The DMSO dilution series were then diluted 1:100 in phosphate buffered saline, and 10 μL of the resulted solution were added to the appropriate wells of the MX-1 cell plate. The final compound concentrations in the wells were 3, 1, 0.3, 0.1, 0.03, 0.01, 0.003, 0.001, 0.0003, and 0.0001 μM, or 1, 0.3, 0.1, 0.03, 0.01, 0.003, 0.001, 0.0003, 0.0001, and 0.00003 μM.
Luminescence readings from the Cell Titer Glo assay were normalized to the DMSO treated cells and analyzed using the GraphPad Prism software with sigmoidal curve fitting to obtain EC50s.

BRD4 (BDI-BDII_K57-K550) = BRD4 (BDI-BDII_K57-K550) (Homo sapiens, UniProt O60885); test: TR-FRET bromodomain binding assay; details: His-tagged tandem bromodomain, Alexa647-labeled probe; Ki calculated from IC50s, probe Kd and probe concentration
Description: A time-resolved fluorescence resonance energy transfer (TR-FRET) assay was used to determine the affinities of compounds of the Examples listed in Table 1 for the tandem domain of bromodomain BRD4. […] An Alexa647-labeled BET-inhibitor was used as the fluorescent probe in the assay.
TR-FRET data were normalized to the means of 24 no-compound controls (“high”) and 8 controls containing 1 μM un-labeled probe (“low”). Percent inhibition was plotted as a function of compound concentration and the data were fit with the 4 parameter logistic equation to obtain IC50s. Inhibition constants (Ki) were calculated from the IC50s, probe Kd and probe concentration. Typical Z′ values were between 0.65 and 0.75.

| EC50 ([1]; Homo sapiens, MX1, MX-1 cells) [nM] | Ki (BRD4 (BDI-BDII_K57-K550)) [nM] | EC50 ([1]; MX-1 cells) [nM] | SMILES |
| --- | --- | --- | --- |
| 6.89 | 4.58 |  | CCS(=O)(=O)c1ccc2c(c1)-c1cn(C)c(=O)cc1OCCCc1ccccc1O2 [Example A-1, 16-(ethylsulfonyl)-2-methyl-7,8-dihydro-2H-dibenzo[4,5:7,8][1,6]dioxacycloundecino[3,2-c]pyridin-3(6H)-one] |
|  | 234 | 709 | CCS(=O)(=O)c1ccc2c(c1)-c1cn(C)c(=O)cc1OCCc1ccccc1O2 [Example A-2, 3-(ethylsulfonyl)-6-methyl-10,11-dihydrodibenzo[4,5:7,8][1,6]dioxecino[3,2-c]pyridin-7(6H)-one] |
| 10.4 | 3.07 |  | CCS(=O)(=O)c1ccc2c(c1)-c1cn(C)c(=O)cc1OCCCCc1ccccc1O2 [Example A-4, 17-(ethylsulfonyl)-2-methyl-6,7,8,9-tetrahydrodibenzo[4,5:7,8][1,6]dioxacyclododecino[3,2-c]pyridin-3(2H)-one] |
| 109 | 25.7 |  | Cn1cc2c(cc1=O)OCCCc1cc(Cl)ccc1Oc1ccc(N)cc1-2 [Example A-7, 16-amino-10-chloro-2-methyl-7,8-dihydro-2H-dibenzo[4,5:7,8][1,6]dioxacycloundecino[3,2-c]pyridin-3(6H)-one] |
|  | 25.2 |  | Cn1cc2c(cc1=O)OCCCCc1cc(Cl)ccc1Oc1ccc(N)cc1-2 [Example A-8, 17-amino-11-chloro-2-methyl-6,7,8,9-tetrahydrodibenzo[4,5:7,8][1,6]dioxacyclododecino[3,2-c]pyridin-3(2H)-one] |
| 347 | 35.2 |  | CCNC(=O)Nc1ccc2c(c1)-c1cn(C)c(=O)cc1OCCCc1cc(Cl)ccc1O2 [Example A-10, 1-(10-chloro-2-methyl-3-oxo-3,6,7,8-tetrahydro-2H-dibenzo[4,5:7,8][1,6]dioxacycloundecino[3,2-c]pyridin-16-yl)-3-ethylurea] |
| 30.6 | 5.37 |  | CC(=O)Nc1ccc2c(c1)-c1cn(C)c(=O)cc1OCCCc1cc(Cl)ccc1O2 [Example A-11, N-(10-chloro-2-methyl-3-oxo-3,6,7,8-tetrahydro-2H-dibenzo[4,5:7,8][1,6]dioxacycloundecino[3,2-c]pyridin-16-yl)acetamide] |
| 42.4 | 3.06 |  | CCS(=O)(=O)Nc1ccc2c(c1)-c1cn(C)c(=O)cc1OCC/C=C/Cc1cc(Cl)ccc1O2 [Example A-15, (E)-N-(12-chloro-2-methyl-3-oxo-3,6,7,10-tetrahydro-2H-dibenzo[4,5:7,8][1,6]dioxacyclotridecino[3,2-c]pyridin-18-yl)ethanesulfonamide] |
| 15.2 | 1.66 |  | CCS(=O)(=O)Nc1ccc2c(c1)-c1cn(C)c(=O)cc1OCCC/C=C/c1cc(Cl)ccc1O2 [Example A-16, (E)-N-(12-chloro-2-methyl-3-oxo-3,6,7,8-tetrahydro-2H-dibenzo[4,5:7,8][1,6]dioxacyclotridecino[3,2-c]pyridin-18-yl)ethanesulfonamide] |
| 7.82 | 2.25 |  | CCS(=O)(=O)Nc1ccc2c(c1)-c1cn(C)c(=O)cc1OC(C)CCCc1cc(Cl)ccc1O2 (stereo not drawn) [Example A-17, N-(11-chloro-2,6-dimethyl-3-oxo-2,3,6,7,8,9-hexahydrodibenzo[4,5:7,8][1,6]dioxacyclododecino[3,2-c]pyridin-17-yl)ethanesulfonamide] |
| 8.87 | 4.06 |  | CCS(=O)(=O)Nc1ccc2c(c1)-c1cn(C)c(=O)cc1OCC/C=C/c1cc(Cl)ccc1O2 [Example A-18, (E)-N-(11-chloro-2-methyl-3-oxo-2,3,6,7-tetrahydrodibenzo[4,5:7,8][1,6]dioxacyclododecino[3,2-c]pyridin-17-yl)ethanesulfonamide] |
| 16.2 | 2.45 |  | CCS(=O)(=O)Nc1ccc2c(c1)-c1cn(C)c(=O)cc1OCCCCCc1cc(Cl)ccc1O2 [Example A-19, N-(12-chloro-2-methyl-3-oxo-3,6,7,8,9,10-hexahydro-2H-dibenzo[4,5:7,8][1,6]dioxacyclotridecino[3,2-c]pyridin-18-yl)ethanesulfonamide] |
| 5.71 | 0.88 |  | Cn1cc2c(cc1=O)OCCCCc1cc(F)cc(F)c1Oc1ccc(S(=O)(=O)C3CC3)cc1-2 [Example A-21, 17-(cyclopropylsulfonyl)-11,13-difluoro-2-methyl-6,7,8,9-tetrahydrodibenzo[4,5:7,8][1,6]dioxacyclododecino[3,2-c]pyridin-3(2H)-one] |
| 7.86 | 1.27 |  | CCS(=O)(=O)c1ccc2c(c1)-c1cn(C)c(=O)cc1OCCCCc1ccc(F)cc1O2 [Example A-23, 17-(ethylsulfonyl)-12-fluoro-2-methyl-6,7,8,9-tetrahydrodibenzo[4,5:7,8][1,6]dioxacyclododecino[3,2-c]pyridin-3(2H)-one] |
| 16.4 | 3.34 |  | CCS(=O)(=O)c1ccc2c(c1)-c1cn(C)c(=O)cc1OCC/C=C/c1ccc(Cl)cc1O2 [Example A-24, (E)-12-chloro-17-(ethylsulfonyl)-2-methyl-6,7-dihydrodibenzo[4,5:7,8][1,6]dioxacyclododecino[3,2-c]pyridin-3(2H)-one] |
| 10.8 | 1.29 |  | CCS(=O)(=O)c1ccc2c(c1)-c1cn(C)c(=O)cc1OCCCCc1ccc(Cl)cc1O2 [Example A-25, 12-chloro-17-(ethylsulfonyl)-2-methyl-6,7,8,9-tetrahydrodibenzo[4,5:7,8][1,6]dioxacyclododecino[3,2-c]pyridin-3(2H)-one] |
| 14.9 | 2.01 |  | CCS(=O)(=O)Nc1ccc2c(c1)-c1cn(C)c(=O)cc1OCCCCc1ccncc1O2 [Example A-26, N-(2-methyl-3-oxo-2,3,6,7,8,9-hexahydrobenzo[4,5][1,6]dioxacyclododecino[3,2-c:7,8-c′]dipyridin-17-yl)ethanesulfonamide] |
| 62.8 | 12.2 |  | Cn1cc2c(cc1=O)OCCCCc1cc(Cl)ccc1Oc1ncccc1-2 [Example A-27, 11-chloro-2-methyl-6,7,8,9-tetrahydrobenzo[11,12][1,6]dioxacyclododecino[2,3-b:4,5-c′]dipyridin-3(2H)-one] |
| > 1000 | 85.9 |  | Cn1cc2c(cc1=O)OCCCCc1ccncc1Oc1ccc(N)cc1-2 [Example A-28, 17-amino-2-methyl-6,7,8,9-tetrahydrobenzo[4,5][1,6]dioxacyclododecino[3,2-c:7,8-c′]dipyridin-3(2H)-one] |
| 3.97 | 0.74 |  | CCS(=O)(=O)Nc1ccc2c(c1)-c1cn(C)c(=O)cc1OCCCCc1cc(C(F)(F)F)ccc1O2 [Example A-29, N-[2-methyl-3-oxo-11-(trifluoromethyl)-2,3,6,7,8,9-hexahydrodibenzo[4,5:7,8][1,6]dioxacyclododecino[3,2-c]pyridin-17-yl]ethanesulfonamide] |
| 8.77 | 1.15 |  | Cn1cc2c(cc1=O)OCCCCc1cc(OC(F)(F)F)ccc1Oc1ccc(NS(C)(=O)=O)cc1-2 [Example A-30, N-[2-methyl-3-oxo-11-(trifluoromethoxy)-2,3,6,7,8,9-hexahydrodibenzo[4,5:7,8][1,6]dioxacyclododecino[3,2-c]pyridin-17-yl]methanesulfonamide] |
|  | 88.7 |  | Cn1cc2c(cc1=O)OCCCCc1cc(Cl)ccc1Oc1ncc(N)cc1-2 [Example A-32, 17-amino-11-chloro-2-methyl-6,7,8,9-tetrahydrobenzo[11,12][1,6]dioxacyclododecino[2,3-b:4,5-c′]dipyridin-3(2H)-one] |
